Read-outs that look alike come from different tables or passages of the source.
Columns and labels:
[1] = Uterine weight in ovariectomized rats; format: in vivo, rat; settings: OVX rats; for uterine weight compared with control group: 200 μg/kg sc; for Uterine Weight (g, ± SEM): 200 μg/kg sc in corn oil, 2 hours prior to MCAO, harvested 24 hours after reperfusion
Experimental: Female, Sprague rats (200-250 g, Charles River, Wilmington, Mass.) were acclimatized for three days prior to surgery. Bilateral ovariectomy (OVX) was performed two weeks prior to middle cerebral artery occlusion (MCAO). Animals were anesthetized by intraperitoneal injection of ketamine (60 mg/kg) and xylazine (10 mg/kg). Rectal temperature was maintained at 37.5±0.5° C. during procedure. The middle cerebral artery was occluded for one hour then suture was withdrawn for reperfusion. […] Animals were decapitated 24 hours after reperfusion. Uteruses were harvested, blotted, and weighed for comparison among treatment groups.

[2] = In vitro reduction of estrone-quinol to estrone by reducing agents in phosphate buffer (LC/MS); format: in vitro ADME; settings: for extent of reductive conversion: pH 7.5, 37° C.
Experimental: Estrone-quinol (0.1 mM) was incubated at 37° C. in 0.1 M phosphate buffer pH 7.5 in the presence of 1 mM of NADH, NADPH, sodium ascorbate, and glutathione (GSH). Aliquots (500 μl) were taken after 60 minutes of incubation, and extracted with ethyl acetate (3×0.5 mL) and the mixture vortexed for 1 minute and centrifuged at […] for 5 minutes. After removing the solvent, the residue of the combined organic extracts was analyzed for their estrone content by LC/MS/MS.
Mass spectra were recorded on a quadrupole ion-trap instrument (LCQ, ThermoFinnigan) using positive-ion APCI as the method of ionization. […] Compound identification was based on retention time (tR), APCI mass spectra, MS/MS and MS^3 with authentic compounds as references. […].
At incremental time points, […] aliquots were removed into ice-cooled centrifuge tubes, and 50 μl of glacial acetic acid was added. After immediate extraction with ethyl acetate (2×500 μl), the organic layer was evaporated under nitrogen stream at room temperature. Reconstitution of the samples with the LC mobile phase was followed by LC/MS analyses. For control, no reducing agents were used.
[…]. […] Kinetic analysis of the microsomal metabolism was done by nonlinear curve-fitting (Scientist for Windows; MicroMath, Inc., Salt Lake City, Utah) presuming consecutive first-order processes in the cascade of estrone-quinol→estrone→estrone-metabolites.

[3] = Cerebral microdialysis, reduction of estrone-quinol to estrone in vivo; parameters: species or system rat; settings: probe perfused at 1 μl/min with 10 picomole/μL in aCSF, ventral hippocampus
From the text: Male, Sprague rats (300-400 g) were anesthetized, placed in a stereotaxic instrument, and a guide cannula (CMA/12 guide cannula) was implanted into the ventral hippocampus under aseptic conditions. The guide cannula was fixed to the skull, together with stainless steel screws attached into additional two holes, with dental acrylics. Before starting the experiment (usually 5-7 days after the implantation of the guide cannula implantation) the rats were placed in a containment unit (BAS, Inc.) for at least 30 minutes. Then a microdialysis probe (CMA/12 polycarbonate membrane diameter 0.5 mm; membrane length 4 mm; molecular cut off: 5,000 Da) was inserted into the ventral hippocampus through the guide cannula. After insertion, the microdialysis probe was perfused with an artificial cerebrospinal fluid (aCSF) at a flow rate of 1 μl/min. maintained by a microperfusion pump (BAS BeeStinger) attached to the probe via polyethylene tubing and a liquid swivel. After equilibration for 50 minutes, an automatic refrigerated fraction collector (BAS HoneyComb) was used for continuous sampling of the probe efflux for 24 hours in 60 minute fractions collected into 300-μl glass vials (control). […]

[4] = molecular target: T1, recombinant estrogen receptor β (ERβ) (Homo sapiens, UniProt Q92731); experiment: Competition binding assay, […] EFC Estrogen Chemiluminescence Assay
T1 construct: purchased Panvera, Madison, Wis
Experimental: (§1) Competition binding assays were performed using an enzyme fragment complementation (EFC) method described in the […] EFC Estrogen Chemiluminescence Assay kit (Fremont, Calif.). […] The enzyme acceptor was then added for another 1.5 hours after which chemiluminescence substrate was added for another hour. Relative luminescences were determined using a Biotek FL600 plate reader (Biotek Instruments, Winooski, Vt.).

[5] = molecular target: T2, recombinant estrogen receptor α (ERα) (Homo sapiens, UniProt P03372); experiment: as above
T2 construct: purchased Panvera, Madison, Wis
T2 sequence (P03372 1-595): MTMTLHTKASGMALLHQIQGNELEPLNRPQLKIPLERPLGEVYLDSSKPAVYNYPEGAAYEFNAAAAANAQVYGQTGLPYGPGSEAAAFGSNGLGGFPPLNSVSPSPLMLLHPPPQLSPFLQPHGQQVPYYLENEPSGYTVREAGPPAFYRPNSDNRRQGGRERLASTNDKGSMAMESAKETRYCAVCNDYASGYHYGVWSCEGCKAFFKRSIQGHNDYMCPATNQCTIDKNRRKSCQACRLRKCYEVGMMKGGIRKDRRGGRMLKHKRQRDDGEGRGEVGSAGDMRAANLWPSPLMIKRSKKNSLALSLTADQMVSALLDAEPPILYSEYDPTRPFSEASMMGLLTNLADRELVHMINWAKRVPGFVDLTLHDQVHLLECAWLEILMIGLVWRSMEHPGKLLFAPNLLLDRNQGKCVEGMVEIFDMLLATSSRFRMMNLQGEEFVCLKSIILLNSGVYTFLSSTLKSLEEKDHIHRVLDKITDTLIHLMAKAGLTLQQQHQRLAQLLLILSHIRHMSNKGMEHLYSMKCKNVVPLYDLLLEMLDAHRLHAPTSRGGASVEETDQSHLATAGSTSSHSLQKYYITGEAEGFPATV
Experimental: as §1

T1 sequence (Q92731 whole entry): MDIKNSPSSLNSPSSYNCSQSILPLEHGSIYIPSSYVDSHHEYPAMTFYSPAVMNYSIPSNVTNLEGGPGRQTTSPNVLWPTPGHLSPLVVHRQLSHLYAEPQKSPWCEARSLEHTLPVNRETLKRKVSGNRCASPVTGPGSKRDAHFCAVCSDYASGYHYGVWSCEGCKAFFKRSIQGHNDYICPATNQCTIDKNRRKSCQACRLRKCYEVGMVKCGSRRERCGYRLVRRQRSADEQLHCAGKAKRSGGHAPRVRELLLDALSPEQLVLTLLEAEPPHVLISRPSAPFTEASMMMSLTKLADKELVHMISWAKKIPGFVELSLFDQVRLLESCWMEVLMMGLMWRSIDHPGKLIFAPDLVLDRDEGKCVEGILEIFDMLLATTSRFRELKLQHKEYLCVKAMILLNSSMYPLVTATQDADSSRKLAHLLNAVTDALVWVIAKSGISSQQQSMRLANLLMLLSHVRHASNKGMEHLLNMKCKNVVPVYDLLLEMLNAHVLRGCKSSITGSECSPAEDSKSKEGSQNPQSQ

| Compound | uterine weight compared with control group [1] | Uterine Weight (g, ± SEM) [1] | initial rate of second-order reaction for the reduction by NADPH ([2]; 10-fold excess of NADPH, microsome-free buffer solution, identical incubation conditions) | extent of reductive conversion ([2]; Example 4, 1.0 mM NADH) | extent of reductive conversion ([2]; Example 4, 1.0 mM NADPH) | flux of entry into the brain [3] | IC50 [4] | IC50 [5] | IC50 ([4]; ERβ, read-out: IC50) | IC50 ([5]; ERα, read-out: IC50) |
| --- | --- | --- | --- | --- | --- | --- | --- | --- | --- | --- |
| C[C@]12CC[C@@H]3c4ccc(O)cc4CC[C@H]3[C@@H]1CCC2=O [E1, estrone, reference compound] | doubled | 0.222 ± 0.022 g |  |  |  |  |  |  |  |  |
| C[C@]12CC[C@H]3[C@@H](CCC4=CC(=O)C=C[C@@]43O)[C@@H]1CCC2=O [E1-quinol, 10β-hydroxyestra-1,4-diene-3,17-dione] | no difference | 0.115 ± 0.010 g | 0.62 ± 0.03 nmol/min | significant extent of reductive conversion | significant extent of reductive conversion | about 2 picomole/minute | > 10 µM | > 10 µM |  |  |
| C[C@]12CC[C@H]3[C@@H](CCC4=CC(=O)C=C[C@@]43O)[C@@H]1CC[C@@H]2O [E2-quinol] |  |  |  |  |  |  |  |  | > 10 µM | > 10 µM |

Reference: patent publication US7300926B2, “Steroidal quinols and their use for estrogen replacement therapy” (University of Florida Research Foundation, Inc., priority 2002, dated 2007)
